Inhibition data for 59 molecules are collected here from paper PMC11129182, “Development of Inhibitors, Probes, and PROTAC Provides a Complete Toolbox to Study PARK7 in the Living Cell” (Journal of Medicinal Chemistry, 2024).

As a reminder, the inhibition is the share of the control response that was lost under treatment.

The target of this experiment is T1, PARK7 (Homo sapiens, UniProt Q99497).
T1 sequence (Q99497 1-189): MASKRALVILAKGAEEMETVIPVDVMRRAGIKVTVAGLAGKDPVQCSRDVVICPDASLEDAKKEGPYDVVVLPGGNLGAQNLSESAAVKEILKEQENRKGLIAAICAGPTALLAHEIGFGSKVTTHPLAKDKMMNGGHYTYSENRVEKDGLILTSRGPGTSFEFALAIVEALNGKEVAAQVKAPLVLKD
The experiment in a line: High-throughput screen of the crude compound library, PARK7 fluorescence polarization (FP) assay with FP reagent JYQ-107. It is filed as biochemical. To be noted: 1.25 µM, crude compound library, read-out: HTS FP assay %Inhibition (1.25 µM). On the technique in general: Polarisation of emitted light reports the rotation of a fluorescent probe.

The structures appear in SMILES notation. Like-named read-outs stand apart in the source and are kept apart here.

`N#CN1CC[C@@H](C(=O)Nc2nc3c(s2)CN(C(=O)CCn2ccc(C(=O)N4CCCC4)n2)CC3)C1` [compound 324]: the inhibition at 1.25 µM was determined as 64.4%.

For `N#CN1CC[C@@H](C(=O)Nc2nc3c(s2)CN(C(=O)C2CCCN(c4ncccn4)C2)CC3)C1` (some centres unmarked) [compound 329], the inhibition at 1.25 µM turned out to be 71.1%. Still for that read-out and setting: the figure for `Cc1noc(C)c1Cc1ccc(C(=O)N2CCc3nc(NC(=O)[C@@H]4CCN(C#N)C4)sc3C2)o1` [compound 95] is 81.3%. For `N#CN1CC[C@@H](C(=O)Nc2nc3c(s2)CN(C(=O)CN2CCOCC2)CC3)C1` [compound 461], the inhibition at 1.25 µM (FP reagent JYQ-107) is 72.7%.

With `CN(Cc1cccnc1)S(=O)(=O)c1cc(C(=O)N2CCc3nc(NC(=O)[C@@H]4CCN(C#N)C4)sc3C2)n(C)c1` [compound 119], the inhibition at 1.25 µM was found to be 71.9%. Still for that read-out and setting: the result for `N#CN1CC[C@@H](C(=O)Nc2nc3c(s2)CN(C(=O)c2cccc(-c4cnco4)c2)CC3)C1` [compound 124] reads 85.6%.

On to `N#CN1CC[C@@H](C(=O)Nc2nc3c(s2)CN(C(=O)CCc2ccccc2)CC3)C1` [compound 459], for which the inhibition at 1.25 µM (FP reagent JYQ-107) was determined as 72.7%. Regarding `N#CN1CC[C@@H](C(=O)Nc2nc3c(s2)CN(C(=O)c2cccc(C(=O)N4CCCC4)n2)CC3)C1` [compound 286], the inhibition at 1.25 µM turned out to be 81.9%.

In the case of `Cn1ccnc1CN1CCC(C(=O)N2CCc3nc(NC(=O)[C@@H]4CCN(C#N)C4)sc3C2)CC1` [compound 265], the inhibition at 1.25 µM was 70.6%.

As to `N#CN1CC[C@@H](C(=O)Nc2nc3c(s2)CN(C(=O)CCc2cccnc2)CC3)C1` [compound 445], where the note is “FP reagent JYQ-107”, the inhibition at 1.25 µM was 62.7%. In the case of `CC(C)(C)OC(=O)N1C[C@@H](O)C[C@@H]1C(=O)N1CCc2nc(NC(=O)[C@@H]3CCN(C#N)C3)sc2C1` [compound 450], where the note is “FP reagent JYQ-107”, the inhibition at 1.25 µM came to 68.1%. On the same count and under the same terms, the figure for `N#CN1CC[C@@H](C(=O)Nc2nc3c(s2)CN(C(=O)C2CCN(C(=O)N4CCOCC4)CC2)CC3)C1` [compound 362] is 71.7%. As to `CC(C(=O)N1CCc2nc(NC(=O)[C@@H]3CCN(C#N)C3)sc2C1)n1ccc(C2CC2)n1` (some centres unmarked) [compound 239], the inhibition at 1.25 µM worked out at 67.1%. Still for that read-out and setting: the result for `Cc1cc(C)n(-c2ccc(Cl)c(C(=O)N3CCc4nc(NC(=O)[C@@H]5CCN(C#N)C5)sc4C3)n2)n1` [compound 338] reads 68.4%. As for `CN1C(=O)CCC(C(=O)N2CCc3nc(NC(=O)[C@@H]4CCN(C#N)C4)sc3C2)C1c1cccs1` (some centres unmarked) [compound 256], the inhibition at 1.25 µM is 61.4%. Consider `Cc1cc(C(=O)N2CCc3nc(NC(=O)[C@@H]4CCN(C#N)C4)sc3C2)c(C)n1-c1cccnc1` [compound 213], for which the inhibition at 1.25 µM is 67.7%. Turning to `CC(=O)C(=O)N1CCc2nc(NC(=O)[C@@H]3CCN(C#N)C3)sc2C1` [compound 466], under “FP reagent JYQ-107”, the inhibition at 1.25 µM was 58.5%. Still for that read-out and setting: the figure for `Cn1c(=O)c2c(ncn2CC(=O)N2CCc3nc(NC(=O)[C@@H]4CCN(C#N)C4)sc3C2)n(C)c1=O` [compound 405] is 67.9%. As to `N#CN1CC[C@@H](C(=O)Nc2nc3c(s2)CN(C(=O)c2ccc(C#Cc4ccccc4)cc2)CC3)C1` [compound 319], the inhibition at 1.25 µM was found to be 75.9%. On to `N#CN1CC[C@@H](C(=O)Nc2nc3c(s2)CN(C(=O)CCC2CCCCC2)CC3)C1` [compound 435], for which the inhibition at 1.25 µM (FP reagent JYQ-107) came out at 78.3%. Turning to `Cc1noc(C)c1S(=O)(=O)N1CCCC1C(=O)N1CCc2nc(NC(=O)[C@@H]3CCN(C#N)C3)sc2C1` (some centres unmarked) [compound 259], the inhibition at 1.25 µM was 69.8%.

With `Cc1nc(-c2c[nH]c(C(=O)N3CCc4nc(NC(=O)[C@@H]5CCN(C#N)C5)sc4C3)c2)cs1` [compound 161], the inhibition at 1.25 µM stood at 86.4%.

With `N#CN1CC[C@@H](C(=O)Nc2nc3c(s2)CN(C(=O)c2csc(C4CCCCC4)n2)CC3)C1` [compound 270], the inhibition at 1.25 µM stood at 87.2%. For `N#CN1CC[C@@H](C(=O)Nc2nc3c(s2)CN(C(=O)C2(CC(=O)N4CCOCC4)CCCC2)CC3)C1` [compound 249], the inhibition at 1.25 µM came to 73.8%. On to `N#CN1CC[C@@H](C(=O)Nc2nc3c(s2)CN(C(=O)c2csc(-c4ncccn4)n2)CC3)C1` [compound 27], for which the inhibition at 1.25 µM came out at 80.8%. The same measure, in the same setting: the figure for `N#CN1CC[C@@H](C(=O)Nc2nc3c(s2)CN(C(=O)CCN(Cc2ccccc2)S(=O)(=O)c2c(Cl)cccc2Cl)CC3)C1` [compound 9] is 69.7%. For the molecule `N#CN1CC[C@@H](C(=O)Nc2nc3c(s2)CN(C(=O)C2CCCN(c4ncccc4C(F)(F)F)C2)CC3)C1` (some centres unmarked) [compound 358], where the note is “FP reagent JYQ-107”, the inhibition at 1.25 µM came to 77.6%. On to `Cc1ccc(C=CS(=O)(=O)N2CCC(C(=O)N3CCc4nc(NC(=O)[C@@H]5CCN(C#N)C5)sc4C3)CC2)cc1` [compound 344], for which the inhibition at 1.25 µM stood at 72%. In the case of `N#CN1CC[C@@H](C(=O)Nc2nc3c(s2)CN(C(=O)c2cc(C4CCC4)on2)CC3)C1` [compound 374], for the setting “FP reagent JYQ-107”, the inhibition at 1.25 µM amounted to 84%. On to `N#CN1CC[C@@H](C(=O)Nc2nc3c(s2)CN(C(=O)c2ccnn2C2CCC2)CC3)C1` [compound 232], for which the inhibition at 1.25 µM came out at 76%. Regarding `CN(C(=O)c1cccs1)c1ccccc1C(=O)N1CCc2nc(NC(=O)[C@@H]3CCN(C#N)C3)sc2C1` [compound 16], the inhibition at 1.25 µM is 63%. Same read-out and setting: the figure for `COc1ccc(C(=O)N2CCc3nc(NC(=O)[C@@H]4CCN(C#N)C4)sc3C2)cc1S(=O)(=O)NCCc1ccccn1` [compound 175] is 78.6%; for `N#CN1CC[C@@H](C(=O)Nc2nc3c(s2)CN(C(=O)c2ccnn2C2CCOCC2)CC3)C1` [compound 132] it is 73.2%. `Cc1noc(C)c1S(=O)(=O)N1CCC(C(=O)N2CCc3nc(NC(=O)[C@@H]4CCN(C#N)C4)sc3C2)CC1` [compound 198]: the inhibition at 1.25 µM was determined as 65.2%.

In the case of `N#CN1CC[C@@H](C(=O)Nc2nc3c(s2)CN(C(=O)c2snnc2-c2ccc(Br)cc2)CC3)C1` [compound 42], the inhibition at 1.25 µM is 69.7%. `COc1ccc(C(=O)N2CCc3nc(NC(=O)[C@@H]4CCN(C#N)C4)sc3C2)cc1S(=O)(=O)N(C)CCc1cccnc1` [compound 290]: the inhibition at 1.25 µM was 67.7%. Regarding `N#CN1CC[C@@H](C(=O)Nc2nc3c(s2)CN(C(=O)c2ccc(CN4CCCCCC4)s2)CC3)C1` [compound 195], the inhibition at 1.25 µM was 72.4%.

For the molecule `N#CN1CC[C@@H](C(=O)Nc2nc3c(s2)CN(C(=O)c2cnc(-c4cccnc4)s2)CC3)C1` [compound 368], the inhibition at 1.25 µM (FP reagent JYQ-107) came out at 69.2%.

Take `N#CN1CC[C@@H](C(=O)Nc2nc3c(s2)CN(C(=O)c2sccc2-n2cccc2)CC3)C1` [compound 310]: the inhibition at 1.25 µM was 85.3%.

Turning to `N#CN1CC[C@@H](C(=O)Nc2nc3c(s2)CN(C(=O)c2cn(CC(=O)N4CCCC4)nn2)CC3)C1` [compound 77], the inhibition at 1.25 µM stood at 84.1%. Regarding `N#CN1CC[C@@H](C(=O)Nc2nc3c(s2)CN(C(=O)c2cc(C4CC4)no2)CC3)C1` [compound 266], the inhibition at 1.25 µM was 73.2%.

As for `N#CN1CC[C@@H](C(=O)Nc2nc3c(s2)CN(C(=O)c2cc(S(=O)(=O)N4CCOCC4)c[nH]2)CC3)C1` [compound 115], the inhibition at 1.25 µM was determined as 81%.

Consider `CC(=O)N1CCC(C(=O)N2CCc3nc(NC(=O)[C@@H]4CCN(C#N)C4)sc3C2)CC1` [compound 475], for which, for the setting “FP reagent JYQ-107”, the inhibition at 1.25 µM is 68.5%.

In the case of `N#CN1CC[C@@H](C(=O)Nc2nc3c(s2)CN(C(=O)C2CCN(C(=O)c4ccccn4)CC2)CC3)C1` [compound 158], the inhibition at 1.25 µM was determined as 69.2%. With `Cc1nc(-c2cc(C)n(CCC(=O)N3CCc4nc(NC(=O)[C@@H]5CCN(C#N)C5)sc4C3)c2C)cs1` [compound 196], the inhibition at 1.25 µM came out at 61.7%.

Take `N#CN1CC[C@@H](C(=O)Nc2nc3c(s2)CN(C(=O)C2CCCN(c4ccc(Cl)nn4)C2)CC3)C1` (some centres unmarked) [compound 356]: for the setting “FP reagent JYQ-107”, the inhibition at 1.25 µM was 76.2%. For the molecule `Cc1ncsc1C(=O)N(C)c1ccccc1C(=O)N1CCc2nc(NC(=O)[C@@H]3CCN(C#N)C3)sc2C1` [compound 308], the inhibition at 1.25 µM amounted to 64.6%. On to `N#CN1CC[C@@H](C(=O)Nc2nc3c(s2)CN(C(=O)[C@@H]2C[C@H]2c2ccco2)CC3)C1` [compound 32], for which the inhibition at 1.25 µM came out at 87%.

With `N#CN1CC[C@@H](C(=O)Nc2nc3c(s2)CN(C(=O)c2ccccc2OCc2ccncc2)CC3)C1` [compound 45], the inhibition at 1.25 µM was determined as 68.7%. Still for that read-out and setting: the result for `N#CN1CC[C@@H](C(=O)Nc2nc3c(s2)CN(C(=O)c2sccc2S(=O)(=O)NC2CCCCCC2)CC3)C1` [compound 284] reads 75.9%; that for `N#CN1CC[C@@H](C(=O)Nc2nc3c(s2)CN(C(=O)C(=O)N2CCN(c4ccccc4)CC2)CC3)C1` [compound 177], 78.6%. Regarding `N#CN1CC[C@@H](C(=O)Nc2nc3c(s2)CN(C(=O)c2csc(-c4ccccn4)n2)CC3)C1` [compound 106], the inhibition at 1.25 µM is 85.1%. For the molecule `COc1ccc(CC(=O)N2CCc3nc(NC(=O)[C@@H]4CCN(C#N)C4)sc3C2)cc1S(=O)(=O)N1CCOCC1` [compound 257], the inhibition at 1.25 µM was 75.5%.

In the case of `CN1CCN(c2ccccc2C(=O)N2CCc3nc(NC(=O)[C@@H]4CCN(C#N)C4)sc3C2)CC1` [compound 17], the inhibition at 1.25 µM was found to be 51.2%. The same measure, in the same setting: the result for `N#CN1CC[C@@H](C(=O)Nc2nc3c(s2)CN(C(=O)CC2(Cn4cnnn4)CCCCC2)CC3)C1` [compound 233] reads 77.5%. The same measure, in the same setting: the result for `Cn1nc(CC(=O)N2CCc3nc(NC(=O)[C@@H]4CCN(C#N)C4)sc3C2)cc1C1CC1` [compound 241] reads 86.1%.

Regarding `N#CN1CC[C@@H](C(=O)Nc2nc3c(s2)CN(C(=O)C2CCN(c4ncccn4)CC2)CC3)C1` [compound 476], the inhibition at 1.25 µM (FP reagent JYQ-107) was 70.3%. Turning to `Cc1noc(-c2ccc(C(=O)N3CCc4nc(NC(=O)[C@@H]5CCN(C#N)C5)sc4C3)cc2)n1` [compound 244], the inhibition at 1.25 µM came to 58.5%. Turning to `N#CN1CC[C@@H](C(=O)Nc2nc3c(s2)CN(C(=O)CC2=NN(c4cccc(Cl)c4)C(=O)C2)CC3)C1` [compound 262], the inhibition at 1.25 µM came to 71.9%.
